Measured values taken from patent US11014914B2, “Opioid receptor (MOR) agonist salt, fumarate salt crystal form I thereof and preparation method thereof” (Jiangsu Hengrui Medicine Co., Ltd., priority 2017, dated 2021).

Experiments:
[1] = Solubility comparison of the fumarate salt and free base in water; assay type: physicochemical; details: thermodynamic from solid; pure water, stirred overnight, filtered, HPLC
Excerpt: Test sample: compound represented by formula (II) (free base) prepared by comparative experiment 2 and product prepared by embodiment 1 (compound represented by formula (I));
The tested sample was weighted and added into pure water, then stirred by a magnetic stirrer overnight, and then filtered and diluted to a certain volume for sample injection;
HPLC chromatographic conditions: acetonitrile-0.1% aqueous trifluoroacetic acid (50:50) used as mobile phase, detection wavelength 264 nm, injection volume 10 μL, flow rate 1.0 mL/min.

[2] = Stability investigation of crystal form I (XRPD, long-term placement); assay type: physicochemical; details: long-term 25° C., 60% RH, dark, sealed, sampling time 5 days
Experimental: The crystal form I sample prepared by embodiment 2 was placed in the dark, sealed and placed flat, and the stability of the sample was investigated long-term (25° C., 60% RH), sampling time was 5 days, and XRPD was used to detect whether the crystal form changed.

SMILES | solubility [1] [mg/mL] | XRPD peak pattern (crystal form change) [2]
CCO[C@H]1CC[C@H](NCC[C@@]2(c3ccccn3)CCOC3(CCCC3)C2)c2ccccc21.O=C(O)/C=C/C(=O)O [Compound represented by formula (I), (1S,4S)-4-ethoxy-N-(2-((R)-9-(pyridin-2-yl)-6-oxaspiro[4.5]deca-9-yl)ethyl)-1,2,3,4-tetrahydronaphthalen-1-amine fumarate salt] | 31.3 | remained unchanged
CCO[C@H]1CC[C@H](NCC[C@@]2(c3ccccn3)CCOC3(CCCC3)C2)c2ccccc21 [Free base, (1S,4S)-4-ethoxy-N-(2-((R)-9-(pyridin-2-yl)-6-oxaspiro[4.5]deca-9-yl)ethyl)-1,2,3,4-tetrahydronaphthalen-1-amine] | 0.0022 | 
